Measurements from US20260176249A1, “PROTEIN KINASE INHIBITOR, PREPARATION METHOD THEREFOR, AND APPLICATION THEREOF” (SHANDONG LUYE PHARMACEUTICAL CO., LTD., priority 2021, published 2026).

Assays:
HCT116 cells [1] = assay: In vivo pharmacodynamic study of compound 1 in HCT116 tumor-bearing mice; parameters: species or system Balb/C Nude mice; conditions: 20 mg/kg once a day by gavage, vs sham group
Source text: Balb/C Nude mice, SPF grade, male, weighing 18-20 g, were purchased from Jiangsu Gempharmatech Co., Ltd.
HCT116 cells were purchased from ATCC.
Matrigel Matrix, Cat. No. 354248, was purchased from Becton, Dickinson and Company.
Kolliphor® HS 15, Cat. No. 42966, was purchased from Sigma-Aldrich.
(§1) a. Establishment of tumor-bearing mouse model: HCT116 cells in the logarithmic growth phase were taken and cultured, the cells were collected and counted, and then subcutaneously inoculated into Balb/C Nude mice at 1×10^6/mouse. The tumor volume and body weight of the mice were measured regularly. 7 days after inoculation, mice with tumor volume of 150 mm3 were randomly divided into groups and treated with corresponding drugs.
b. […] The administration was performed once a day by gavage for 21 consecutive days, and the tumor volume and body weight of the mice were measured regularly.
(§2) 3. Data processing: All data were organized in EXCEL, and One-way ANOVA analysis and drawing were performed using GraphPad Prism 8.0 software. Statistical significance was achieved when p<0.05.

[2] = Permeability and efflux transporter substrate evaluation in Caco-2 cells; assay type: in vitro ADME; parameters: Papp A→B at 120 min / Papp B→A at 120 min / efflux ratio at 120 min / Papp at 120 min: dose or concentration left out as unconfirmed; conditions: human; for Papp at 120 min: Caco-2, pH 7.4, read-out: Classification Permeability; for Papp A→B at 120 min / Papp B→A at 120 min: pH 7.4, pH 7.40; for Papp A→B at 120 min: Caco-2, apical to basolateral; for Papp B→A at 120 min: Caco-2, basolateral to apical
Procedure: (§3) The cells were cultured in a carbon dioxide incubator for 21-28 days before being used for transport experiments. During this period, the culture medium was changed every four to five days.
(§4) This project uses Hank's balanced salt buffer (pH 7.40±0.05) containing 10 mM HEPES as the transport buffer. The culture medium was removed from the culture plate and the cells were washed twice with preheated transport buffer (approximately 75 μL and 40 mL of transport buffer for each apical well and basolateral receiver plate respectively). The donor solution and receiver solution were added to the corresponding cell plate wells (75 and 250 μL for each apical and basolateral well respectively), and the bidirectional transport experiment was started (apical to basolateral (A-B) and basolateral to apical (B-A)). The test concentration of the test substance was […], and two replicate wells were made for each dosing concentration. The test concentration of Digoxin was […], with dosing bidirectionally; the test concentrations of nadolol and metoprolol were both […], and they were dosed in one direction (A-B direction), and two replicate wells were made for each of the three control compounds.
(§5) The initial donor solution is the TO sample. After adding the sample, it was mixed with the transport buffer and stop solution in a certain proportion.
(§6) All samples were vortexed, and then centrifuged at 3220×g for 20 min at 20° C. A proper volume of supernatant was transferred to a sample assay plate, and the sample was stored at 2-8° C. if it was not analyzed immediately after the plate was sealed, and LC MS/MS method was used for analysis.
(§7) The Lucifer Yellow Rejection Assay was used to test the integrity of the Caco-2 cell layer.
(§8) The following formulas were used to calculate the apparent permeability coefficient (Papp, cm/s), efflux ratio (ER), and solution recovery (%) (% Solution Recovery).
(§9) [formula] [formula] [formula] • VR is the volume of the receiver side solution (side A is 0.075 mL, side B is 0.25 mL); Area is the relative surface area of the cell monolayer (0.0804 cm^2); Time is the incubation time (7200 s); C0 is the initial concentration (nM) of the test substance at the donor side or the peak area ratio of the control compound; VD is the volume of the donor side (side A is 0.075 mL, side B is 0.25 mL); CD and CR are the final concentration (nM) of the test substance at the donor side and the receiver side respectively or the peak area ratio of the control compound; • Lucifer yellow transmittance rate (% Lucifer Yellow) is calculated using the following formula:
(§10) [formula] • RFUApical and RFUBasolateral are the relative fluorescence intensity of lucifer yellow at the apical and basolateral sides respectively. VApical and VBasolateral are the sample loading volumes at the apical and basolateral sides respectively (0.075 and 0.25 mL respectively).

Caco-2 cells = assay: as above; assay type: in vitro ADME; parameters: Papp A→B at 120 min / Papp B→A at 120 min / efflux ratio at 120 min / Papp at 120 min: dose or concentration left out as unconfirmed; conditions: Caco-2
Procedure: as §3, §4, §5, §6, §7, §8, §9, §10

HCT116 cells [3] = assay: In vivo pharmacodynamic study of compound 18 in HCT116 tumor-bearing mice; parameters: species or system Balb/C Nude mice; conditions: 10 mg/kg once a day by gavage
Procedure: as §1, §2
1. Experiment materials: Same as Test example 5.
a. Establishment of tumor-bearing mouse model: Same as Test example 5.
b. […] The administration was performed once a day by gavage for 7 consecutive days, and the tumor volume and body weight of the mice were measured regularly.
3. Data processing: Same as Test example 5.

[4] = Metabolic stability in rat liver microsomes; assay type: in vitro ADME
Procedure: (§11) a. Preparation of phosphate buffer: The phosphate buffer powder was dissolved in 100 mL of pure water to prepare a phosphate buffer solution with a pH of 7.4 and a concentration of 100 mM, which was stored in a 4° C. refrigerator for later use.
(§12) b. All samples as well as the reference testosterone were dissolved in DMSO to obtain a 10 mM stock solution. The 10 mM stock solution was diluted to 100 μM with acetonitrile to obtain a working solution for later use.
(§13) c. Preparation of liver microsome working solution: Each of the mouse, rat and human liver microsome stock solutions (at concentration of 20 mg/mL) was taken and diluted to 0.56 mg/mL with 100 mM phosphate buffer solution to obtain the liver microsome working solution.
(§14) d. Preparation of solution: An appropriate amount of MgCl2 was weighed and used to prepare a MgCl2 solution at a concentration of 60 mM using 100 mM phosphate buffer solution. An appropriate amount of NADPH was weighed and used to prepare a NADPH solution at a concentration of 20 mM using 100 mM phosphate buffer solution. An equal volume of 60 mM MgCl2 solution was added to prepare an NADPH working solution containing 10 mM NADPH and 30 mM MgCl2. An acetonitrile solution containing 20 ng/mL tolbutamide was prepared as the stop solution.
(§15) e. Liver microsome incubation: 2 μL of each compound and the positive drug testosterone working solution were added to 178 μL of liver microsome working solution (0.56 mg/mL), mixed gently, and pre-incubated in a vibrating constant temperature water bath pot at 37° C. for 10 min. After adding 20 μL of NADPH working solution, the mixture was placed in a vibrating constant temperature water bath pot at 37° C. and timed incubation was started for 5, 10, 20, 30 and 60 min.
(§16) f. Stopping reaction: After the corresponding time of incubation, 400 μL of stop solution was added to stop the reaction, and then the sample was immediately shaken for 1 min. The sample was centrifuged at 13500 rpm for 10 min at 10° C. After centrifugation, the supernatant was removed, diluted with water according to the needs of each compound, and analyzed by LC-MS. For the 0-minute sample, the stop solution was first added and mixed evenly with the liver microsomes, and then the NADPH working solution was added. For the negative control sample, 20 μL of 30 mM MgCl2 solution was added instead of the NADPH working solution.
(§17) T1/2 and CLint(mic) were calculated by the following formula.
(§18) [formula] [formula] • CLint(mic)=0.693/T1/2/liver microsomal protein concentration during incubation (mg/mL) • CLint(ver)=CLint(mic)*liver microsomal protein (mg)/liver weight (g)*liver weight to body weight ratio
(§19) Liver microsomal protein (mg)/liver weight (g): the value is 45 in both animal and human species.
(§20) Liver weight to body weight ratio: the parameters for mice, rats and humans are 88, 40 and 20 g/kg respectively.

[5] = Metabolic stability in mouse liver microsomes; assay type: in vitro ADME
Procedure: as §11, §12, §13, §14, §15, §16, §17, §18, §19, §20

[6] = Metabolic stability in human liver microsomes; assay type: in vitro ADME
Procedure: as §11, §12, §13, §14, §15, §16, §17, §18, §19, §20

Q: With CN1CCN(c2ccc(OC(F)(F)F)c(Nc3ncc4ccc5c(C(N)=O)nn(CCO)c5c4n3)c2)CC1 [Compound 1] as the compound, how does the tumor inhibition rate (HCT116 cells [1]; 11 days) read?
A: 82.0%

Q: And the tumor inhibition rate (HCT116 cells [1]; 16 days)?
A: 86.5%

Q: What about the tumor inhibition rate (HCT116 cells [1]; 21 days) of the same compound?
A: 88.3%

Q: And the Papp at 120 min [2]?
A: 0.5 to 2.5 ×10⁻⁶ cm/s

Q: What about the Papp A→B at 120 min [2] of the same compound?
A: 0.965 ×10⁻⁶ cm/s

Q: And the Papp B→A at 120 min [2]?
A: 20.8 ×10⁻⁶ cm/s

Q: And the “Classification Efflux transporter substrate” value (Caco-2 cells)?
A: Likely (ERa ≥ 2.00)

Q: Which “body weight decrease compared to before administration” value (HCT116 cells [3]; 5 days) does the source give for CN1CCN(c2ccc(OC(F)(F)F)c(Nc3ncc4ccc5c(C(N)=O)nn(CCF)c5c4n3)c2)CC1 [Compound 18] here?
A: 7.6%

Q: And the “body weight decrease compared to before administration” value (HCT116 cells [3]; 7 days)?
A: 16.1%

Q: What about the tumor inhibition rate (HCT116 cells [3]; 7 days, vs control group) of the same compound?
A: 70.9%

Q: And the “60 min remaining amount” value [4]?
A: 2.74%

Q: And the Clearance rate [4]?
A: High

Q: What about the CLint scaled at 1 µM ([4]; rat, pH 7.4) of the same compound?
A: 505 mL/min/kg

Q: And the half-life at 1 µM ([4]; rat, pH 7.4)?
A: 4.94 min

Q: What about the microsomal CLint at 1 µM ([4]; rat, pH 7.4, read-out: CLint(mic)) of the same compound?
A: 281 µL/min/mg

Q: And the “60 min remaining amount” value [5]?
A: 4.32%

Q: And the Clearance rate [5]?
A: High

Q: And the CLint scaled at 1 µM ([5]; mouse, pH 7.4)?
A: 409 mL/min/kg

Q: And the half-life at 1 µM ([5]; mouse, pH 7.4)?
A: 13.4 min

Q: And the microsomal CLint at 1 µM ([5]; mouse, pH 7.4, read-out: CLint(mic))?
A: 103 µL/min/mg

Q: And the “60 min remaining amount” value [6]?
A: 7.83%

Q: And the Clearance rate [6]?
A: High

Q: What about the CLint scaled at 1 µM ([6]; human, pH 7.4) of the same compound?
A: 78.7 mL/min/kg

Q: And the half-life at 1 µM ([6]; human, pH 7.4)?
A: 15.9 min

Q: And the microsomal CLint at 1 µM ([6]; human, pH 7.4, read-out: CLint(mic))?
A: 87.4 µL/min/mg

Q: What about the Papp at 120 min [2] of the same compound?
A: 0.5 to 2.5 ×10⁻⁶ cm/s

Q: And the Papp A→B at 120 min [2]?
A: 2.03 ×10⁻⁶ cm/s

Q: What about the Papp B→A at 120 min [2] of the same compound?
A: 3.36 ×10⁻⁶ cm/s

Q: And the “Classification Efflux transporter substrate” value (Caco-2 cells)?
A: Very unlikely or not (ERa < 2.00)
